{"source": "paper PMC8245078", "about": "“Development of novel benzofuran-isatin conjugates as potential antiproliferative agents with apoptosis inducing mechanism in Colon cancer” (Journal of Enzyme Inhibition and Medicinal Chemistry, 2021)", "key": {"[1]": {"tested_on": "HT-29 colorectal cancer cell line", "assay": "MTT cell viability assay", "type": "cell-based, human", "details": "for inhibition of HT-29 cancer cells viability: 10 µM, 24 h, MTT", "method": "(§1) In the present investigation a new set of benzofuran–isatin hybrids (5a–e and 7a–i) was synthesised to be evaluated for their potential anticancer activity towards two human colorectal cancer cell lines, SW-620 and HT-29. […] Both, SW-620 and HT-29 cells were treated with 10 µM of each compound for 24 h and the percent cell viability was calculated using MTT assay.\n(§2) For this reason, compounds 5a and 5d were pursued for further studies. Starting with determination of IC50s and cytotoxic selectivity studies. Serial concentrations of compounds 5a and 5d were used to examine their impact on cell viability using MTT protocol. Results of concentration vs percent viability were charted, and the IC50 was calculated for SW-620 and HT-29 cell lines using Graph Pad prism 8 (Figure 4). […]\n(§3) [(Ti-Tz)/Tz] x 100 for concentrations for which Ti<Tz […]\n(§4) SW620 and HT29 colorectal cancer cell lines and HFF-1 fibroblast (ATCC, Rockville, USA) were used. HT29 cells were cultured and maintained in Dulbecco’s Modified Eagles Medium (DMEM) (GIBCO, by Thermo Fischer Scientific, NY, USA) supplemented with 10% fetal bovine serum (FBS), 100 units/mL penicillin, and 100 μg streptomycin. SW620 and HFF-1 cells were cultured in Roswell Park Memorial Institute medium (RPMI-1640) (GIBCO, by Thermo scientific, NY, USA) supplemented with 10% FBS and 1% penicillin and streptomycin (Napolitano et al., 2015). All cultures were incubated at 37 °C and humidified atmosphere of 5% […]\n(§5) 2.3. Cell Viability Assay\n(§6) The cytotoxicity effect of compounds on the colorectal cancer cell lines, SW620 and HT29 in addition to the normal human fibroblasts was measured by MTT (3-(4, 5-dimethylthiazol-2-yl)-2,5-diphenyltetrazolium bromide) (Sigma-Aldrich, St. Louis, MO, USA) as previously described. Briefly, cells were seeded in 96 well culture plates at 5000/well for HT29 and 10,000/well for SW620 for 24 h. Cells were then incubated with different compounds from WAG1 series (1-15) 24h at 37 °C and humidified 5% CO2 incubator. Freshly prepared 10 μl of 3-(4,5-dimethylthiazol-2-yl)-2,5-diphenyltetrazolium bromide (MTT 5 mM) solution were added to the cells and further incubated for 2 h. Thereafter, 100 μl of dimethyl sulfoxide (DMSO) were added in each well and the crystals were dissolved through careful pipetting. […]\nVA, USA). The experiments were performed in triplicate for each condition. […]\n(§7) The total protein concentration was evaluated by the colorimetric\n(§8) Bradford protein assay (BIO-RAD inc, CA, USA) at 595 nm absorbance. Lysates were loaded in […]"}, "[2]": {"tested_on": "SW-620 colorectal cancer cell line", "assay": "MTT cell viability assay", "type": "cell-based, human", "details": "Homo sapiens, SW-620, SW-620, MTT", "method": "as §1, §2, §3, §4, §5\nas §6, with “pipetting. In certain experiment, cells were treated different concentration of 5FU for 72 h. The absorbance of the product was measured at 540 nm using a Synergy™ 2 multi-mode microplate reader (Biotech, VA, USA). The experiments were performed in triplicate for each condition.” for “pipetting.”\nas §7, §8"}}}
{"molecule": "C=CCN1C(=O)/C(=N\\NC(=O)c2oc3ccccc3c2C)c2ccccc21", "note": "[Compound 7c]", "values": [{"measurement": "inhibition of HT-29 cancer cells viability", "setting": "[1]", "result": "> 50", "unit": "%"}]}
{"molecule": "Cc1c(C(=O)N/N=C2\\C(=O)N(Cc3ccc(F)cc3)c3ccccc32)oc2ccccc12", "note": "[Compound 7e]", "values": [{"measurement": "inhibition of HT-29 cancer cells viability", "setting": "[1]", "result": "> 50", "unit": "%"}]}
{"molecule": "Cc1c(C(=O)N/N=C2\\C(=O)N(Cc3ccccc3)c3ccc(Br)cc32)oc2ccccc12", "note": "[Compound 7h]", "values": [{"measurement": "inhibition of HT-29 cancer cells viability", "setting": "[1]", "result": "> 50", "unit": "%"}]}
{"molecule": "Cc1c(C(=O)N/N=C2\\C(=O)N(Cc3ccc(F)cc3)c3ccc(Br)cc32)oc2ccccc12", "note": "[Compound 7i]", "values": [{"measurement": "inhibition of HT-29 cancer cells viability", "setting": "[1]", "result": "> 50", "unit": "%"}]}
{"molecule": "CCc1c2c(nc3ccc(OC(=O)N4CCC(N5CCCCC5)CC4)cc13)-c1cc3c(c(=O)n1C2)COC(=O)[C@]3(O)CC", "note": "[Irinotecan, reference compound]", "values": [{"measurement": "IC50", "setting": "[1]; Homo sapiens, HT-29, HT-29, MTT", "result": 6.18, "unit": "µM"}, {"measurement": "IC50", "setting": "[2]", "result": 1000, "unit": "nM"}]}
